Biological target: Rho-associated protein kinase 2 (Homo sapiens, UniProt O75116)
Assay: In Vitro Assay
Method: The effectiveness of compounds of the present invention as ROCK inhibitors can be determined in a 30 μL assay containing 20 mM HEPES, pH 7.5, 20 mM MgCl2, 0.015% Brij-35, 4 mM DTT, 5 μM ATP and 1.5 μM peptide substrate (FITC-AHA-AKRRRLSSLRA-OH) (SEQ ID No. 1). Compounds were dissolved in DMSO so that the final concentration of DMSO was <2%, and the reaction was initiated with Rho kinase variants. After incubation, the reaction was terminated by the addition of EDTA and the phosphorylated and non-phosphorylated peptides separated using a LABCHIP 3000 Reader (Caliper Life Sciences). […] Compounds were tested in dose-response format, and the inhibition of kinase activity was calculated at each concentration of compound. The inhibition data were fit using a curve-fitting program to determine the IC50; i.e., the concentration of compound required to inhibit 50% of kinase activity.

Sequence of Rho-associated protein kinase 2 (O75116 whole entry): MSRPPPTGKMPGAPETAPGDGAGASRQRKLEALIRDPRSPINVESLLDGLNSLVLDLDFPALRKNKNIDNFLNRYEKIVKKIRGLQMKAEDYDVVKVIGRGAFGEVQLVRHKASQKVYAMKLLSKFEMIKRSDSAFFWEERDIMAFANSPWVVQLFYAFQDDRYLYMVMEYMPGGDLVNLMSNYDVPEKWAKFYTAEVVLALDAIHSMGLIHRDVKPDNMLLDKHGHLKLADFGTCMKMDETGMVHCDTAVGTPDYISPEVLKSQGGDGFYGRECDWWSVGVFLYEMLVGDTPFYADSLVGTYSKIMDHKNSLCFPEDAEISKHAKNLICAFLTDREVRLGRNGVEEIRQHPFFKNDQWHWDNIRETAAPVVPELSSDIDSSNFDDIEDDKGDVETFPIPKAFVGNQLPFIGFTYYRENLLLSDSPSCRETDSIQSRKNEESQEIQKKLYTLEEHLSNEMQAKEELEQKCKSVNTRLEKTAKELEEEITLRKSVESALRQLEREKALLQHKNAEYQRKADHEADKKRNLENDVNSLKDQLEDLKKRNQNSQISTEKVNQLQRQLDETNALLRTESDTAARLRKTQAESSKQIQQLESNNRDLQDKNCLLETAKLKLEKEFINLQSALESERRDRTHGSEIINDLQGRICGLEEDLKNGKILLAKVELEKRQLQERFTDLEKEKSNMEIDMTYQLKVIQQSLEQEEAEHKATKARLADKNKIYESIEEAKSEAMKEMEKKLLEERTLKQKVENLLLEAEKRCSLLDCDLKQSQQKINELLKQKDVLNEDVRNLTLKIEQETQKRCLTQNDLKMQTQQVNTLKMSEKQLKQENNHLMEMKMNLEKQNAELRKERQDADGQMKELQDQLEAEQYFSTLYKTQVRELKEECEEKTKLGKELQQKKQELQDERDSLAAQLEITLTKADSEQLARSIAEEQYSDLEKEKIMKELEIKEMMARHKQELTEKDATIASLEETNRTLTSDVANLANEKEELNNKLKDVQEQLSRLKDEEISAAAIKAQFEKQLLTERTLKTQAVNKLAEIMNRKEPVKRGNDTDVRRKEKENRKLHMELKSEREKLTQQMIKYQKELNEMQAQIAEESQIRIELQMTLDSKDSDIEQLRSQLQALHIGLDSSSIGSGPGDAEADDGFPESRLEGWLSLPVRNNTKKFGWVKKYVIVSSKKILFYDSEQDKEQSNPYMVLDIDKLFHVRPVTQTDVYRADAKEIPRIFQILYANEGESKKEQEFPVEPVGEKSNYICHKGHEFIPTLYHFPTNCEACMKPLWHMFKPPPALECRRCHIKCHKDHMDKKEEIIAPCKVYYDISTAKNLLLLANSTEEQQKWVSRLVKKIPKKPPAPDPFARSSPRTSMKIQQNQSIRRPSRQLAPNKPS

## COc1ccc2sc(NC(=O)Cc3ccc(Oc4ncccc4C(N)=O)c(Cl)c3)nc2c1 [US11306081, Example 115]
  IC50: 8 nM

Source: BindingDB's records for patent US11306081 (Bristol Myers Squibb, 2022)
